Data from PubChem BioAssay AID248 (DTP/NCI, 2004).
Where “and” joins values, the source holds several entries; their conditions need not be identical. Identical values can stand only once. Toxic doses and inconclusive results are not listed. Cut-off read from the data, not from the text of the source: active = T/C of 150% or more; inactive = T/C below 125%.

Test system: L1210 leukemia ip in BDF1 mice, survival T/C
Assay: NCI In Vivo Anticancer Drug Screen. Data for tumor model L1210 Leukemia (intraperitoneal) in B6D2F1 (BDF1) mice
Conditions: endpoint: mean survival time, higher = longer survival
In short: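 Each compound was tested against a transplantable tumor grown in mice. The endpoint was survival, with treated animals benchmarked against vehicle controls as a simple ratio.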

[1] = dose: 100.0 mg/kg/injection, schedule: Q04DX003 (ip), vehicle: saline
[2] = dose: 200.0 mg/kg/injection, schedule: Q04DX003 (ip), vehicle: saline
[3] = dose: 100.0 mg/kg/injection, schedule: Q04DX003 (ip), vehicle: saline with Tween-80
[4] = dose: 200.0 mg/kg/injection, schedule: Q04DX003 (ip), vehicle: saline with Tween-80
[5] = dose: 100.0 mg/kg/injection, schedule: Q04DX002 (ip), vehicle: saline with Tween-80
[6] = dose: 200.0 mg/kg/injection, schedule: Q04DX002 (ip), vehicle: saline with Tween-80
[7] = dose: 400.0 mg/kg/injection, schedule: Q04DX002 (ip), vehicle: saline with Tween-80
[8] = dose: 100.0 mg/kg/injection, schedule: Q01DX009 (ip), vehicle: Klucel (hydroxypropylcellulose) (HPC)
[9] = dose: 100.0 mg/kg/injection, schedule: Q04DX003 (ip), vehicle: Klucel (hydroxypropylcellulose) (HPC)
[10] = dose: 200.0 mg/kg/injection, schedule: Q01DX009 (ip), vehicle: Klucel (hydroxypropylcellulose) (HPC)
[11] = dose: 200.0 mg/kg/injection, schedule: Q04DX003 (ip), vehicle: Klucel (hydroxypropylcellulose) (HPC)
[12] = dose: 400.0 mg/kg/injection, schedule: Q01DX009 (ip), vehicle: Klucel (hydroxypropylcellulose) (HPC)
[13] = dose: 400.0 mg/kg/injection, schedule: Q04DX003 (ip), vehicle: Klucel (hydroxypropylcellulose) (HPC)
[14] = dose: 100.0 mg/kg/injection, schedule: Q01DX009 (ip), vehicle: saline with Tween-80
[15] = dose: 200.0 mg/kg/injection, schedule: Q01DX009 (ip), vehicle: saline with Tween-80
[16] = dose: 400.0 mg/kg/injection, schedule: Q01DX009 (ip), vehicle: saline with Tween-80
[17] = dose: 400.0 mg/kg/injection, schedule: Q04DX003 (ip), vehicle: saline with Tween-80
[18] = dose: 100.0 mg/kg/injection, schedule: Q04DX002 (ip), vehicle: Klucel (hydroxypropylcellulose) (HPC)
[19] = dose: 200.0 mg/kg/injection, schedule: Q04DX002 (ip), vehicle: Klucel (hydroxypropylcellulose) (HPC)
[20] = dose: 400.0 mg/kg/injection, schedule: Q04DX002 (ip), vehicle: Klucel (hydroxypropylcellulose) (HPC)
[21] = dose: 100.0 mg/kg/injection, schedule: Q01DX001 (ip), vehicle: carboxymethylcellulose (CMC)
[22] = dose: 200.0 mg/kg/injection, schedule: Q01DX001 (ip), vehicle: carboxymethylcellulose (CMC)
[23] = dose: 400.0 mg/kg/injection, schedule: Q01DX001 (ip), vehicle: carboxymethylcellulose (CMC)

Measured: T/C

CC(=O)NC1CCC(NC(C)=O)CC1 (stereo not given)
inactive: dose: 100.0 mg/kg/injection, schedule: Q01DX001 (ip), vehicle: saline 104 % of control | dose: 200.0 mg/kg/injection, schedule: Q01DX001 (ip), vehicle: saline 97 % of control | dose: 400.0 mg/kg/injection, schedule: Q01DX001 (ip), vehicle: saline 104 % of control

CC1C(C)(C)P(=O)(OCCOP2(=O)C(C)(C)C(C)C2(C)C)C1(C)C (stereo not given)
inactive: [1] 100 % of control | [2] 94 % of control

CCOC(=O)C1SC(N)=NC1=O (stereo not given)
inactive: [3] 94 % of control | [4] 90 % of control

COC(=O)C(c1ccccc1)C(O)c1ccccc1 (stereo not given)
inactive: dose: 55.0 mg/kg/injection, schedule: Q01DX Z (ip), vehicle: methylcellulose (MC) 113 % of control | dose: 83.0 mg/kg/injection, schedule: Q01DX Z (ip), vehicle: methylcellulose (MC) 94 % of control | dose: 125.0 mg/kg/injection, schedule: Q01DX Z (ip), vehicle: methylcellulose (MC) 93 % of control

NC(=O)NCO
inactive: [5] 94 % of control | [6] 94 % of control | [7] 90 % of control

O=C(c1ccccc1)C1C(c2ccccc2)N1C(=O)c1ccccc1 (stereo not given)
inactive: [8] 94 % of control | [9] 102 % of control | [10] 101 % of control | [11] 90 % of control | [12] 89 % of control | [13] 90 % of control

Cc1ccc(S(=O)(=O)N/N=C/c2c(O)ccc3ccccc23)cc1
inactive: [14] 87 % of control | [3] 96 % of control | [15] 89 % of control | [4] 94 % of control | [16] 91 % of control | [17] 94 % of control

[O-][N+](=C(c1ccccc1)c1ccccc1)c1ccccc1
inactive: [3] 101 % of control | [4] 93 % of control | [17] 90 % of control

CNC(=S)n1ncnc1NC=O
inactive: dose: 100.0 mg/kg/injection, schedule: Q04DX003 (ip), vehicle: acetone 98 % of control

Cc1cc2c(cc1C)NC(=O)CC(=O)N2
inactive: [8] 96 % of control and 97 % of control | [9] 92 % of control | [10] 86 % of control | [11] 100 % of control | [12] 89 % of control | [13] 89 % of control

Nc1ccc(S(=O)(=O)c2ccc(N)cn2)cc1
inactive: dose: 50.0 mg/kg/injection, schedule: Q04DX002 (ip), vehicle: Klucel (hydroxypropylcellulose) (HPC) 89 % of control | [18] 98 % of control and 107 % of control | [19] 96 % of control | [20] 96 % of control and 102 % of control

COC(=O)C1OC(n2cnc3c(Cl)ncnc32)C(OC(C)=O)C(OC(C)=O)C1OC(C)=O (stereo not given)
inactive: dose: 50.0 mg/kg/injection, schedule: Q01DX001 (ip), vehicle: carboxymethylcellulose (CMC) 100 % of control | [21] 108 % of control | [22] 103 % of control | [23] 97 % of control

O=C(c1ccccc1)c1cc(CN(CCCl)CCCl)c(O)cc1O
inactive: [21] 106 % of control | [22] 117 % of control | [23] 122 % of control

Nc1ccc2ncsc2c1
inactive: [14] 114 % of control | [3] 102 % of control | [15] 88 % of control | [4] 95 % of control | [17] 98 % of control

CCOC(=O)c1ccc(NC(=O)Nc2cc(OC)c(Cl)cc2OC)cc1
inactive: dose: 100.0 mg/kg/injection, schedule: Q01DX001 (ip), vehicle: saline with Tween-80 93 % of control | [5] 97 % of control | dose: 200.0 mg/kg/injection, schedule: Q01DX001 (ip), vehicle: saline with Tween-80 101 % of control | [6] 100 % of control | dose: 400.0 mg/kg/injection, schedule: Q01DX001 (ip), vehicle: saline with Tween-80 88 % of control | [7] 97 % of control

CCOC(=O)CCc1nc2ccc3ccccc3c2c(=O)[nH]1
inactive: [18] 88 % of control | [19] 91 % of control | [20] 94 % of control

CCOC(=O)CNC(=O)NCCc1ccccc1
inactive: [14] 112 % of control | [15] 96 % of control | [16] 87 % of control

O=c1[nH]cnc2c1ncn2C1OC(CI)C(O)C1O (stereo not given)
inactive: dose: 100.0 mg/kg/injection, schedule: Q01DX005 (ip), vehicle: saline 95 % of control | dose: 200.0 mg/kg/injection, schedule: Q01DX005 (ip), vehicle: saline 101 % of control

O=C(Oc1ccc(O)cc1)c1ccccc1
inactive: dose: 25.6 mg/kg/injection, schedule: Q04DX002 (ip), vehicle: saline 88 % of control | dose: 64.0 mg/kg/injection, schedule: Q04DX002 (ip), vehicle: saline 95 % of control | dose: 160.0 mg/kg/injection, schedule: Q04DX002 (ip), vehicle: saline 92 % of control | dose: 400.0 mg/kg/injection, schedule: Q04DX002 (ip), vehicle: saline 92 % of control

CCC(C)N=[N+]([O-])CC (stereo not given)
inactive: dose: 100.0 mg/kg/injection, schedule: Q01DX001 (ip), vehicle: acetone 101 % of control | dose: 200.0 mg/kg/injection, schedule: Q01DX001 (ip), vehicle: acetone 112 % of control | dose: 400.0 mg/kg/injection, schedule: Q01DX001 (ip), vehicle: acetone 91 % of control

O=C(CCN1CC1)Nc1ccc(Cc2ccc(NC(=O)CCN3CC3)cc2)cc1
inactive: dose: 20.0 mg/kg/injection, schedule: Q04DX003 (ip), vehicle: Klucel (hydroxypropylcellulose) (HPC) 101 % of control | dose: 40.0 mg/kg/injection, schedule: Q04DX003 (ip), vehicle: Klucel (hydroxypropylcellulose) (HPC) 117 % of control | dose: 80.0 mg/kg/injection, schedule: Q04DX003 (ip), vehicle: Klucel (hydroxypropylcellulose) (HPC) 106 % of control

ClC(Cl)C1OCCOCCO1
inactive: [18] 97 % of control | [19] 100 % of control | [20] 97 % of control

Cc1cc(C)c(S(=O)(=O)c2ccc(F)cc2)c(C)c1
inactive: [14] 98 % of control | [15] 98 % of control | [16] 101 % of control

C[Si](C)(C)CCc1ccccc1
inactive: [3] 98 % of control | [4] 95 % of control | [17] 93 % of control

OCc1nccn1Cc1ccccc1
inactive: dose: 25.0 mg/kg/injection, schedule: Q01DX009 (ip), vehicle: water 99 % of control | dose: 50.0 mg/kg/injection, schedule: Q01DX009 (ip), vehicle: water 100 % of control | dose: 100.0 mg/kg/injection, schedule: Q01DX009 (ip), vehicle: saline 97 % of control | dose: 100.0 mg/kg/injection, schedule: Q01DX009 (ip), vehicle: water 100 % of control | dose: 200.0 mg/kg/injection, schedule: Q01DX009 (ip), vehicle: saline 108 % of control | dose: 200.0 mg/kg/injection, schedule: Q01DX009 (ip), vehicle: water 106 % of control

O=[N+]([O-])CC(O)C(O)C(O)C(O)CO (stereo not given)
inactive: [1] 102 % of control | [2] 102 % of control | dose: 400.0 mg/kg/injection, schedule: Q04DX003 (ip), vehicle: saline 102 % of control

CCN(CC)CN(CC)CC
inactive: dose: 25.0 mg/kg/injection, schedule: Q04DX002 (ip), vehicle: saline with Tween-80 103 % of control | dose: 50.0 mg/kg/injection, schedule: Q04DX002 (ip), vehicle: saline with Tween-80 100 % of control | [5] 98 % of control and 103 % of control

COc1cccc(NC(=O)CCC(=O)O)c1
inactive: dose: 25.0 mg/kg/injection, schedule: Q01DX009 (ip), vehicle: saline with Tween-80 105 % of control | dose: 50.0 mg/kg/injection, schedule: Q01DX009 (ip), vehicle: saline with Tween-80 100 % of control | dose: 50.0 mg/kg/injection, schedule: Q04DX003 (ip), vehicle: saline with Tween-80 98 % of control | [3] 103 % of control | [15] 88 % of control | [4] 97 % of control | [16] 95 % of control | [17] 103 % of control

N#Cc1ccc(-c2ccc(C#N)cc2Br)c(Br)c1
inactive: [8] 93 % of control | [9] 94 % of control | [10] 93 % of control | [11] 95 % of control | [12] 88 % of control | [13] 96 % of control
